Values quoted from earlier work, collected in US20040072746A1, “Inhibitors of monocarboxylate transport” (priority 2001, published 2004).

molecular target: T1, rat MCT1 (Rattus norvegicus, UniProt P53987); conditions: cited from earlier work
T1 sequence (P53987 1-494): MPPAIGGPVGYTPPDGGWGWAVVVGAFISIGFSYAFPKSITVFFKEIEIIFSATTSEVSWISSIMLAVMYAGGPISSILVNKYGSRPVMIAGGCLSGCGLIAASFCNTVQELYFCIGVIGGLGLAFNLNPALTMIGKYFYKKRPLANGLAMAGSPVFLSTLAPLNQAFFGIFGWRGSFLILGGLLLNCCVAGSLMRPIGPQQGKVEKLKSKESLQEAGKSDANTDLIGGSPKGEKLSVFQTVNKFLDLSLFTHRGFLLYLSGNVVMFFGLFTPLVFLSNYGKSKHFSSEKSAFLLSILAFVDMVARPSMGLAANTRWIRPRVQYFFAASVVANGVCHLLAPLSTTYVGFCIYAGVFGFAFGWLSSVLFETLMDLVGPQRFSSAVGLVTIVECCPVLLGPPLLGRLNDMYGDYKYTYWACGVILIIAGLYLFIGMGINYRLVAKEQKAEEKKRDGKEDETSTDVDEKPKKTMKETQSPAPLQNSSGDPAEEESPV

| Compound | IC50 |
| --- | --- |
| N#CC(=Cc1ccc(O)cc1)C(=O)O [CHC, α-cyano-4-hydroxycinnamate] | 27 µM |
| O=S(=O)(O)c1cc(N=C=S)ccc1C=Cc1ccc(N=C=S)cc1S(=O)(=O)O [DIDS, 4,4′-di-isothiocyanatostilbene-2,2′-disulphonate] | 50 µM |
| O=C(CCc1ccc(O)cc1)c1c(O)cc(O)cc1O [phloretin] | 1 µM |
